According to patent US20090018134A1, “Compounds - 945” (AstraZeneca AB, priority 2007, published 2009):

molecular target: T1, mTOR (Homo sapiens, UniProt P42345); assay: In Vitro mTOR Kinase Assay (Echo), Test (a)(ii); format: biochemical; conditions: table of enzyme assay Test (a)(ii); read-out: Test (a)(ii) IC50
T1 construct: FLAG; made in house
Outline: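 Inhibition of truncated mTOR (1362-2549, FLAG-tagged, purified from stably transfected HEK293 cells) is measured as reduced AlphaScreen signal from a phospho-T389-recognising antibody bound to the biotinylated peptide product. Kinase incubation lasts 2 hours at room temperature. Potency is given as IC50.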

T1 sequence (P42345 1362-2549): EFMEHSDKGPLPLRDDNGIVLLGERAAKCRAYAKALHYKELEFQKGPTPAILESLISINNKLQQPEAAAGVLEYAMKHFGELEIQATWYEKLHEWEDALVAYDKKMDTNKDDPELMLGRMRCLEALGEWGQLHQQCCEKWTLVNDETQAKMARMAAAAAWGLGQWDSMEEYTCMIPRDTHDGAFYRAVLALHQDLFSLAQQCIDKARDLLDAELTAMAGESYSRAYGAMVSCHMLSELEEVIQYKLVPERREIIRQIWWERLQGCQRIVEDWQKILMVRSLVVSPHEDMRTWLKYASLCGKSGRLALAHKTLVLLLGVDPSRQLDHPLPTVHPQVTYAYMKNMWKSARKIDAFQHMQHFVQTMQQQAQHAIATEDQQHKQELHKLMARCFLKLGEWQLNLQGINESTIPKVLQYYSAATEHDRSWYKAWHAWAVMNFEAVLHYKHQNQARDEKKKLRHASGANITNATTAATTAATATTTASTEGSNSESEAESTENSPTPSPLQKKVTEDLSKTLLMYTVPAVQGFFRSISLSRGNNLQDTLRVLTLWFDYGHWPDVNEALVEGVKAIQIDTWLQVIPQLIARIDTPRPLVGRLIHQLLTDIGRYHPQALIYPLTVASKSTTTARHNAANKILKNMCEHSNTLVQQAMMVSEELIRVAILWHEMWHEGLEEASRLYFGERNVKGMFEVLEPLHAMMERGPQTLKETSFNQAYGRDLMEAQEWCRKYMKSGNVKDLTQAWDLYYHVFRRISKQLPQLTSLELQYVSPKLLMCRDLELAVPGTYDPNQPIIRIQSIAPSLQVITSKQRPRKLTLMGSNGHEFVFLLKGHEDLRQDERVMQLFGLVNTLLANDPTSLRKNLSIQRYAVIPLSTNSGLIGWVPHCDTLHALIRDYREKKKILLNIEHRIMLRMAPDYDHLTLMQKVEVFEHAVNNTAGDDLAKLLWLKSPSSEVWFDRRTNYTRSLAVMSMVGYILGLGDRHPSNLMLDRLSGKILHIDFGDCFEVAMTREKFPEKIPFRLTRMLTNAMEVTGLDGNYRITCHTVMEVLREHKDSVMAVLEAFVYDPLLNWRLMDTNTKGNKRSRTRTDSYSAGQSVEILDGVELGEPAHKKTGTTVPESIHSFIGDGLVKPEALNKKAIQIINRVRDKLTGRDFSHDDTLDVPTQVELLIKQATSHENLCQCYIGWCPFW

SMILES | IC50
C[C@H]1COCCN1c1cc(C2(S(=O)(=O)c3nccs3)CC2)nc(-c2ccc(NC(=O)NCc3ncc[nH]3)cc2)n1 [Example 66b, 3-(1H-imidazol-2-ylmethyl)-1-[4-[4-[(3S)-3-methylmorpholin-4-yl]-6-[1-(1,3-thiazol-2-ylsulfonyl)cyclopropyl]pyrimidin-2-yl]phenyl]urea] | 24.6 nM
C[C@H]1COCCN1c1cc(C2(S(=O)(=O)c3nccs3)CC2)nc(-c2ccc(NC(=S)NCCO)cc2)n1 [Example 67, 3-(2-Hydroxyethyl)-1-[4-[4-[(3S)-3-methylmorpholin-4-yl]-6-[1-(1,3-thiazol-2-ylsulfonyl)cyclopropyl]pyrimidin-2-yl]phenyl]thiourea] | 1 nM
Cc1ccc(S(=O)(=O)C2(c3cc(N4CCOC[C@@H]4C)nc(-c4ccc(NC(=O)NC5CC5)cc4)n3)CCC2)cc1 [Example 68, 3-Cyclopropyl-1-[4-[4-[(3S)-3-methylmorpholin-4-yl]-6-[1-(4-methylphenyl)sulfonylcyclobutyl]pyrimidin-2-yl]phenyl]urea] | 1.41 nM
Cc1ccc(S(=O)(=O)C2(c3cc(N4CCOC[C@@H]4C)nc(-c4ccc(NC(=O)Nc5cnn(C)c5)cc4)n3)CCC2)cc1 [Example 68a] | 1.74 nM
CCNC(=O)Nc1ccc(-c2nc(N3CCOC[C@H]3C)cc(C3(S(=O)(=O)c4ccccc4)CC3)n2)cc1 [Example 69, 1-[4-[4-[1-(Benzenesulfonyl)cyclopropyl]-6-[(3R)-3-methylmorpholin-4-yl]pyrimidin-2-yl]phenyl]-3-ethylurea] | 7.88 nM
CCNC(=O)Nc1ccc(-c2nc(N3CCOC[C@@H]3CC)cc(C3(S(=O)(=O)c4ccccc4)CC3)n2)cc1 [Example 70, 1-[4-[4-[1-(Benzenesulfonyl)cyclopropyl]-6-[(3S)-3-ethylmorpholin-4-yl]pyrimidin-2-yl]phenyl]-3-ethylurea] | 2 nM
CCNC(=O)Nc1ccc(-c2nc(N3CCOCC3CO)cc(C3(S(=O)(=O)c4ccccc4)CC3)n2)cc1 (stereo not shown) [Example 71, 1-[4-[4-[1-(Benzenesulfonyl)cyclopropyl]-6-[3-(hydroxymethyl)morpholin-4-yl]pyrimidin-2-yl]phenyl]-3-ethylurea] | 18.2 nM
CCNC(=O)Nc1ccc(-c2nc(N3[C@@H](C)COC[C@@H]3C)cc(C3(S(=O)(=O)c4ccccc4)CC3)n2)cc1 [Example 72, 1-[4-[4-[1-(Benzenesulfonyl)cyclopropyl]-6-[(3S,5S)-3,5-dimethylmorpholin-4-yl]pyrimidin-2-yl]phenyl]-3-ethylurea] | 4.32 nM
CCNC(=O)Nc1ccc(-c2nc(N3[C@H](C)COC[C@@H]3C)cc(C3(S(=O)(=O)c4ccccc4)CC3)n2)cc1 [Example 73, 1-[4-[4-[1-(Benzenesulfonyl)cyclopropyl]-6-[(3R,5S)-3,5-dimethylmorpholin-4-yl]pyrimidin-2-yl]phenyl]-3-ethylurea] | 7.44 nM
CC[C@H]1COCCN1c1cc(C2(S(=O)(=O)c3ccccc3)CC2)nc(-c2ccc(NC(=O)NC)cc2)n1 [Example 74, 1-[4-[4-[1-(Benzenesulfonyl)cyclopropyl]-6-[(3S)-3-ethylmorpholin-4-yl]pyrimidin-2-yl]phenyl]-3-methylurea] | 2.37 nM
CC[C@H]1COCCN1c1cc(C2(S(=O)(=O)c3ccccc3)CC2)nc(-c2ccc(NC(=O)NC3CC3)cc2)n1 [Example 74a, 1-[4-[4-[1-(benzenesulfonyl)cyclopropyl]-6-[(3S)-3-ethylmorpholin-4-yl]pyrimidin-2-yl]phenyl]-3-cyclopropylurea] | 3.98 nM
CC[C@H]1COCCN1c1cc(C2(S(=O)(=O)c3ccccc3)CC2)nc(-c2ccc(NC(=O)NCCO)cc2)n1 [Example 74b, 1-[4-[4-[1-(benzenesulfonyl)cyclopropyl]-6-[(3S)-3-ethylmorpholin-4-yl]pyrimidin-2-yl]phenyl]-3-(2-hydroxyethyl)urea] | 2.44 nM
CC[C@H]1COCCN1c1cc(C2(S(=O)(=O)c3ccccc3)CC2)nc(-c2ccc(NC(=O)NCCF)cc2)n1 [Example 74c, 1-[4-[4-[1-(benzenesulfonyl)cyclopropyl]-6-[(3S)-3-ethylmorpholin-4-yl]pyrimidin-2-yl]phenyl]-3-(2-fluoroethyl)urea] | 3.14 nM
CC[C@H]1COCCN1c1cc(C2(S(=O)(=O)c3ccccc3)CC2)nc(-c2ccc(NC(=O)NCC(F)F)cc2)n1 [Example 74d, 1-[4-[4-[1-(benzenesulfonyl)cyclopropyl]-6-[(3S)-3-ethylmorpholin-4-yl]pyrimidin-2-yl]phenyl]-3-(2,2-difluoroethyl)urea] | 2.79 nM
CC[C@H]1COCCN1c1cc(C2(S(=O)(=O)c3ccccc3)CC2)nc(-c2ccc(NC(=O)Nc3cnn(C)c3)cc2)n1 [Example 74e, 1-[4-[4-[1-(benzenesulfonyl)cyclopropyl]-6-[(3S)-3-ethylmorpholin-4-yl]pyrimidin-2-yl]phenyl]-3-(1-methylpyrazol-4-yl)urea] | 5.06 nM
CC[C@H]1COCCN1c1cc(C2(S(=O)(=O)c3ccccc3)CC2)nc(-c2ccc(NC(=O)N[C@@H](C)CO)cc2)n1 [Example 74f, 1-[4-[4-[1-(benzenesulfonyl)cyclopropyl]-6-[(3S)-3-ethylmorpholin-4-yl]pyrimidin-2-yl]phenyl]-3-[(2S)-1-hydroxypropan-2-yl]urea] | 3.99 nM
CC[C@H]1COCCN1c1cc(C2(S(=O)(=O)c3ccccc3)CC2)nc(-c2ccc(NC(=O)N[C@H](C)CO)cc2)n1 [Example 74g, 1-[4-[4-[1-(benzenesulfonyl)cyclopropyl]-6-[(3S)-3-ethylmorpholin-4-yl]pyrimidin-2-yl]phenyl]-3-[(2R)-1-hydroxypropan-2-yl]urea] | 4.33 nM
CC[C@H]1COCCN1c1cc(C2(S(=O)(=O)c3ccccc3)CC2)nc(-c2ccc(NC(=O)NCCCO)cc2)n1 [Example 74h, 1-[4-[4-[1-(benzenesulfonyl)cyclopropyl]-6-[(3S)-3-ethylmorpholin-4-yl]pyrimidin-2-yl]phenyl]-3-(3-hydroxypropyl)urea] | 3.21 nM
CC[C@H]1COCCN1c1cc(C2(S(=O)(=O)c3ccccc3)CC2)nc(-c2ccc(NC(=O)NCC3(O)CC3)cc2)n1 [Example 74i, 1-[4-[4-[1-(benzenesulfonyl)cyclopropyl]-6-[(3S)-3-ethylmorpholin-4-yl]pyrimidin-2-yl]phenyl]-3-[(1-hydroxycyclopropyl)methyl]urea] | 9.25 nM
Cc1nn(C(F)F)c(C)c1S(=O)(=O)C1(c2cc(N3CCOC[C@@H]3C)nc(-c3ccc(NC(=O)NC4CC4)cc3)n2)CC1 [Example 75, 3-Cyclopropyl-1-[4-[4-[1-[1-(difluoromethyl)-3,5-dimethylpyrazol-4-yl]sulfonylcyclopropyl]-6-[(3S)-3-methylmorpholin-4-yl]pyrimidin-2-yl]phenyl]urea] | 29 nM
CNC(=O)Nc1ccc(-c2nc(N3CCOC[C@@H]3C)cc(C3(S(=O)(=O)c4c(C)nn(C(F)F)c4C)CC3)n2)cc1 [Example 75a, 1-[4-[4-[1-[1-(difluoromethyl)-3,5-dimethylpyrazol-4-yl]sulfonylcyclopropyl]-6-[(3S)-3-methylmorpholin-4-yl]pyrimidin-2-yl]phenyl]-3-methylurea] | 43.5 nM
CCNC(=O)Nc1ccc(-c2nc(N3CCOC[C@@H]3C)cc(C3(S(=O)(=O)c4c(C)nn(C(F)F)c4C)CC3)n2)cc1 [Example 75b, 3-[4-[4-[1-[1-(difluoromethyl)-3,5-dimethylpyrazol-4-yl]sulfonylcyclopropyl]-6-[(3S)-3-methylmorpholin-4-yl]pyrimidin-2-yl]phenyl]-1-ethylurea] | 38.1 nM
